From the NIST ThermoML archive (doi:10.1021/acs.jced.8b00124)
± gives the expanded uncertainty stated by the source.

What was measured:
[1] = Crystal; DTA
[2] = Molar enthalpy of transition or fusion; details: Crystal; DSC

Q: With Cc1cc(C)nc(Nc2ccccc2)n1 [2-anilino-4,6-dimethylpyrimidine] as the compound, how does the Normal melting temperature [1] read?
A: 96.14 ± 1.1 °C

Q: And the “Molar enthalpy of transition or fusion” value [2]?
A: 6.08 ± 0.263 kcal/mol
